The values below come from ChEMBL document CHEMBL1140023, “Synthesis of marine alkaloid: 8,9-dihydrocoscinamide B and its analogues as Novel class of antileishmanial agents” (2007).

Active and inactive are the calls of the source. The calls are words filed in the database; no cut-off is given here.

Holding throughout (format): functional
For assay [1], the system named is Leishmania donovani. Briefly: Antileishmanial activity against Leishmania donovani assessed as inhibition of amastigotes at 10 ug/ml.
For assay [2], the system named is Leishmania donovani. Put plainly: Antileishmanial activity against Leishmania donovani assessed as inhibition of promastigotes at 10 ug/ml.
Assay [3] concerns Leishmania donovani. Put plainly: Antileishmanial activity against Leishmania donovani assessed as inhibition of promastigotes at 0.5 ug/ml.
For assay [4], the system named is Leishmania donovani. Briefly: Antileishmanial activity against Leishmania donovani assessed as inhibition of amastigotes at 50 ug/ml.

As for `O=C(NCCc1c[nH]c2ccccc12)C(=O)c1c[nH]c2cc(Br)ccc12`, the inhibition at 10 µg/mL is 75.1% in the assay with Leishmania donovani [1] and 99.2% in the assay with Leishmania donovani [2]. Turning to `O=C(NCCc1cn(S(=O)(=O)c2ccccc2)c2ccccc12)C(=O)c1cn(S(=O)(=O)c2ccccc2)c2ccccc12`, the inhibition at 10 µg/mL in the assay on Leishmania donovani [2] amounted to 49%. For `O=C(NCc1ccco1)C(=O)c1c[nH]c2ccccc12`, the result in the assay with Leishmania donovani [1] was inactive. The inhibition at 10 µg/mL in the assay on Leishmania donovani [2] came to 99.2%. Consider `O=C(Nc1nc2ccccc2s1)C(=O)c1c[nH]c2ccccc12`, for which the inhibition at 10 µg/mL in the assay on Leishmania donovani [2] was determined as 18%. As for `Cn1cc(CCNC(=O)C(=O)c2cn(C)c3ccccc23)c2ccccc21`, the inhibition at 10 µg/mL with Leishmania donovani [1] stood at 97.8%; with Leishmania donovani [2] it was 99%.

For the compound `O=C(NCCc1c[nH]c2ccccc12)C(=O)c1c[nH]c2ccccc12`, the results for the inhibition at 10 µg/mL with Leishmania donovani [1] and with Leishmania donovani [2] were 97.7% and 100%, respectively. For `O=C(Nc1ccc2[nH]ccc2c1)C(=O)c1c[nH]c2ccccc12`, the outcome with Leishmania donovani [1] was Active. Besides, in the assay with Leishmania donovani [2], the inhibition at 10 µg/mL came out at 93.7%. Turning to `CN1CCN(C(=O)C(=O)c2c[nH]c3ccccc23)CC1`, the inhibition at 10 µg/mL in the assay on Leishmania donovani [2] was 35.9%.

With `O=C(C(=O)N1CCOCC1)c1c[nH]c2ccccc12`, the inhibition at 10 µg/mL was determined as 78.1% in the assay with Leishmania donovani [1] and 83.2% in the assay with Leishmania donovani [2]. For `N=C(N)NC(=O)C(=O)c1c[nH]c2ccccc12`, the inhibition at 10 µg/mL with Leishmania donovani [2] was found to be 55%. Same read-out and setting: as for `COc1ccc(CCNC(=O)C(=O)c2c[nH]c3ccccc23)cc1`, the figure is 68.5%. In the case of `O=C(NCCc1c[nH]c2ccccc12)C(=O)c1c[nH]c2c(Cl)cccc12`, the inhibition at 10 µg/mL worked out at 59.1% in the assay with Leishmania donovani [1] and 99.1% in the assay on Leishmania donovani [2]. On to `O=C(NCc1ccccc1)C(=O)c1c[nH]c2ccccc12`, for which, in the assay with Leishmania donovani [2], the inhibition at 10 µg/mL stood at 53.9%. In the case of `N=C(N)c1ccc(OCCCCCOc2ccc(C(=N)N)cc2)cc1` [PENTAMIDINE], in the assay with Leishmania donovani [3], the inhibition at 0.5 µg/mL was determined as 85%. The inhibition at 10 µg/mL with Leishmania donovani [2] came out at 30%. The inhibition at 50 µg/mL in the assay with Leishmania donovani [4] stood at 90%.

On to `COc1ccc(CCNC(=O)C(=O)c2c[nH]c3ccccc23)cc1OC`, for which the inhibition at 10 µg/mL in the assay on Leishmania donovani [2] is 78.2%. Same read-out and setting: as for `O=C(NCCCn1ccnc1)C(=O)c1c[nH]c2ccccc12`, the figure is 55.5%; as for `O=C(NCCCN1CCOCC1)C(=O)c1c[nH]c2ccccc12`, 73%.
